The data set can be described thus: refractive index (Na D-line) (dimensionless); wn = mass fraction of the nth substance listed. Conditions: 333.15 K, 100 kPa, Liquid, Standard Abbe refractometry.

SMILES strings stand for the structures. Numbers after ± are expanded uncertainties.

One may read the refractive index as the speed of light in vacuum divided by its phase velocity in the sample.

In the case of `[Br-].[Br-].[Mg+2]` [magnesium bromide (MgBr2)] + O, for the setting “w1 = 0.5241”, the refractive index is reported as 1.4594 ± 0.0004.

`O=S(=O)([O-])[O-].[Mg+2]` [magnesium sulfate] + O: the refractive index (w1 = 0.3525) turned out to be 1.3957 ± 0.0004.

For the origin of these results see the NIST ThermoML archive (doi:10.1021/acs.jced.6b00290).
